Among the data in the supplement of paper PMC12137928 are IC50 cell viability and efficacy values, retold here.

Structures can show the parent of a compound that is named as a salt.

Experiment [1] relates to HCT116. The conditions noted are these: 72 h. An outline of the steps:
(§1)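 After seeding at 250 cells per well in 1536-well plates, HCT116 cells were given 5 h to attach. CellTiter-Glo luminescence, scaled to 0% for vehicle and -100% for positive control, was pattern-corrected. Fitting with a four-parameter Hill model produced IC50 and maximal efficacy.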

The subject of experiment [2] is HCT116. Briefly: efficacy (maximum % inhibition of viability vs DMSO); higher = more cytotoxic. The conditions noted are these: 72 h. The method, boiled down: as §1

Turning to `Fc1ccc(C(c2ccc(F)cc2)N2CCN(C/C=C/c3ccccc3)CC2)cc1` [Flunarizine], the IC50 cell viability in the experiment on HCT116 [1] (ICRF193 0 nM) came to 20.6 µM; with HCT116 [1] (ICRF193 200 nM) it was 18.3 µM. The values for the efficacy in the experiment with HCT116 [2] (ICRF193 0 nM) and with HCT116 [2] (ICRF193 200 nM) were 109% and 80%, respectively.

As for `NS(=O)(=O)c1cc2c(cc1Cl)N=C(CSCc1ccccc1)NS2(=O)=O` [Benzthiazide], the IC50 cell viability was over 45.8 µM with HCT116 [1] (ICRF193 0 nM) and 29.1 µM with HCT116 [1] (ICRF193 200 nM). Moreover, the efficacy in the experiment on HCT116 [2] (ICRF193 200 nM) was found to be 77%.

Turning to `Cc1cc(N)c2ccccc2[n+]1CCCCCCCCCC[n+]1c(C)cc(N)c2ccccc21` [Dequalinium dichloride], the values for the IC50 cell viability with HCT116 [1] (ICRF193 0 nM) and with HCT116 [1] (ICRF193 200 nM) were over 45.8 µM and 2.98 µM, respectively. In addition, the efficacy in the experiment on HCT116 [2] (ICRF193 200 nM) was determined as 55.3%.

As to `Clc1ccc(C(Cn2ccnc2)OCc2c(Cl)cccc2Cl)c(Cl)c1` (stereo unspecified) [Isoconazole nitrate], the IC50 cell viability in the experiment on HCT116 [1] (ICRF193 0 nM) was found to be 25.9 µM; in the experiment on HCT116 [1] (ICRF193 200 nM) it was 18.3 µM. In addition, the figures for the efficacy with HCT116 [2] (ICRF193 0 nM) and in the experiment with HCT116 [2] (ICRF193 200 nM) were 87.5% and 82.6%, respectively.

As to `CNCC[C@@H](Oc1ccccc1C)c1ccccc1` [Atomoxetine hydrochloride], the IC50 cell viability is over 45.8 µM in the experiment on HCT116 [1] (ICRF193 0 nM) and 29.1 µM in the experiment on HCT116 [1] (ICRF193 200 nM). The compound also displayed an efficacy in the experiment on HCT116 [2] (ICRF193 200 nM) of 81.3%.

Consider `COC(=O)[C@H]1[C@H]2C[C@@H]3c4[nH]c5ccccc5c4CCN3C[C@H]2C[C@@H](OC(=O)c2cc(OC)c(OC)c(OC)c2)[C@@H]1OC` [Deserpidine], for which the IC50 cell viability came out at 29.1 µM in the experiment with HCT116 [1] (ICRF193 0 nM) and 25.9 µM in the experiment with HCT116 [1] (ICRF193 200 nM). In addition, the efficacy with HCT116 [2] (ICRF193 0 nM) amounted to 59.1%; with HCT116 [2] (ICRF193 200 nM) it was 48.2%.

`O=c1c(-c2ccccc2)c1-c1ccccc1` [Diphenylcyclopropenone]: the IC50 cell viability in the experiment on HCT116 [1] (ICRF193 0 nM) was 29.1 µM; in the experiment on HCT116 [1] (ICRF193 200 nM), over 45.8 µM. The efficacy in the experiment on HCT116 [2] (ICRF193 0 nM) was determined as 100%.

Take `CC1=NN(c2ccc(C)c(C)c2)C(=O)/C1=N\Nc1cccc(-c2cccc(C(=O)O)c2)c1O` [Eltrombopag olamine]: the values for the IC50 cell viability with HCT116 [1] (ICRF193 0 nM) and with HCT116 [1] (ICRF193 200 nM) were 6.51 µM and over 45.8 µM, respectively. Moreover, the efficacy in the experiment on HCT116 [2] (ICRF193 0 nM) stood at 41.9%.

For `CN1CCCC(CC2c3ccccc3Sc3ccccc32)C1` (stereo unspecified) [Metixene hydrochloride], the IC50 cell viability was found to be 20.6 µM in the experiment with HCT116 [1] (ICRF193 0 nM) and 25.9 µM in the experiment on HCT116 [1] (ICRF193 200 nM). Also, the efficacy with HCT116 [2] (ICRF193 0 nM) was 109%; with HCT116 [2] (ICRF193 200 nM), 94.6%.

As for `CC/C(=C(/CC)c1ccc(O)cc1)c1ccc(O)cc1` [Diethylstilbestrol], the figures for the IC50 cell viability in the experiment on HCT116 [1] (ICRF193 0 nM) and in the experiment with HCT116 [1] (ICRF193 200 nM) were 18.3 µM and 23.1 µM, respectively. The results for the efficacy in the experiment on HCT116 [2] (ICRF193 0 nM) and in the experiment with HCT116 [2] (ICRF193 200 nM) were 52.4% and 47.5%, respectively.

Regarding `C[C@@]12C(=O)OC(=O)[C@]1(C)[C@H]1CC[C@@H]2O1` [Cantharidin], the IC50 cell viability amounted to 5.8 µM in the experiment with HCT116 [1] (ICRF193 0 nM) and 4.11 µM with HCT116 [1] (ICRF193 200 nM). Moreover, the figures for the efficacy in the experiment on HCT116 [2] (ICRF193 0 nM) and in the experiment on HCT116 [2] (ICRF193 200 nM) were 74.9% and 77.2%, respectively.

In the case of `CO[C@H]1C[C@H](O[C@H]2[C@H](C)O[C@@H](O[C@@H]3/C(C)=C/C[C@@H]4C[C@@H](C[C@]5(C=C[C@H](C)[C@@H](C6CCCCC6)O5)O4)OC(=O)[C@@H]4C=C(C)[C@@H](O)[C@H]5OC/C(=C\C=C\[C@@H]3C)[C@]54O)C[C@@H]2OC)O[C@@H](C)[C@@H]1O` [DORAMECTIN], the values for the IC50 cell viability in the experiment on HCT116 [1] (ICRF193 0 nM) and with HCT116 [1] (ICRF193 200 nM) were 13 µM and 7.3 µM, respectively. In addition, the efficacy in the experiment with HCT116 [2] (ICRF193 0 nM) is 112%; in the experiment with HCT116 [2] (ICRF193 200 nM) it was 106%.

As to `O=C(Oc1cccc2cccnc12)c1ccccc1` [Benzoxiquine], the values for the IC50 cell viability in the experiment with HCT116 [1] (ICRF193 0 nM) and in the experiment on HCT116 [1] (ICRF193 200 nM) were over 45.8 µM and 29.1 µM, respectively. This compound also came in with an efficacy in the experiment with HCT116 [2] (ICRF193 200 nM) of 70.8%.

For `O=S(=O)(O)c1ccc2c(/N=N/c3ccc(S(=O)(=O)O)c4ccccc34)c(O)c(S(=O)(=O)O)cc2c1` [Amaranth], the IC50 cell viability in the experiment on HCT116 [1] (ICRF193 0 nM) was 16.4 µM; in the experiment on HCT116 [1] (ICRF193 200 nM) it was 13 µM. Moreover, the efficacy with HCT116 [2] (ICRF193 0 nM) was found to be 49%; in the experiment with HCT116 [2] (ICRF193 200 nM), 47.6%.

`CC(=O)[C@]1(O)Cc2c(O)c3c(c(O)c2[C@@H](O[C@H]2C[C@H](N)[C@H](O)[C@H](C)O2)C1)C(=O)c1ccccc1C3=O` [Idarubicin hydrochloride]: the IC50 cell viability was 1.64 µM in the experiment with HCT116 [1] (ICRF193 0 nM) and 0.58 µM in the experiment on HCT116 [1] (ICRF193 200 nM). The efficacy in the experiment with HCT116 [2] (ICRF193 0 nM) amounted to 80.9%; in the experiment with HCT116 [2] (ICRF193 200 nM) it was 78.8%.

With `Cc1cc(C(C#N)c2ccc(Cl)cc2)c(Cl)cc1NC(=O)c1cc(I)cc(I)c1O` (stereo unspecified) [Closantel], the IC50 cell viability in the experiment with HCT116 [1] (ICRF193 0 nM) was 9.2 µM; with HCT116 [1] (ICRF193 200 nM) it was 10.3 µM. Also, the figures for the efficacy in the experiment on HCT116 [2] (ICRF193 0 nM) and in the experiment with HCT116 [2] (ICRF193 200 nM) were 70.3% and 77.1%, respectively.

Turning to `CCCCC[C@H](O)/C=C/[C@H]1[C@H](O)CC(=O)[C@@H]1C/C=C\CCCC(=O)O` [Prostaglandin E2], the IC50 cell viability turned out to be 29.1 µM with HCT116 [1] (ICRF193 0 nM) and 23.1 µM with HCT116 [1] (ICRF193 200 nM). The values for the efficacy with HCT116 [2] (ICRF193 0 nM) and with HCT116 [2] (ICRF193 200 nM) were 68.9% and 84.7%, respectively.

On to `COc1cc2ncnc(Nc3ccc(F)c(Cl)c3)c2cc1OCCCN1CCOCC1` [Gefitinib], for which the IC50 cell viability with HCT116 [1] (ICRF193 0 nM) is 20.6 µM; with HCT116 [1] (ICRF193 200 nM), 29.1 µM. For the same compound, the values for the efficacy with HCT116 [2] (ICRF193 0 nM) and in the experiment with HCT116 [2] (ICRF193 200 nM) were 86.4% and 98.2%, respectively.
